In the Deep4Chem optical property database:

Experiment: solvent given as SMILES
[1] = in c1cc(-c2cccc(-n3c4ccccc4c4ccccc43)c2)cc(-n2c3ccccc3c3ccccc32)c1

Cc1nc2c(c[n+]1C)CN1C(=O)N([C@H]3O[C@@H](CO)[C@H](O)[C@@H]3O)C=CC1=N2
emission maximum (in CC#N): 416 nm | emission maximum (in CC(C)=O): 418 nm | emission maximum (in CCCCO): 417 nm | emission maximum (in CCCO): 417 nm | emission maximum (in CCO): 417 nm | emission maximum (in CO): 417 nm | emission maximum (in O): 414 nm | emission maximum (in [2H]OC): 417 nm | emission maximum (in [2H]OCC): 417 nm | emission maximum (in [2H]O[2H]): 414 nm

CC1(C)c2cc(-c3ccc4ccc5cccc6ccc3c4c56)ccc2-c2ccc(-c3ccc4ccc5cccc6ccc3c4c56)cc21
emission maximum (in ClCCl): 421 nm

CC(C)(C)c1ccc(-c2c3ccccc3c3n2[B-](F)(F)[N+]2=Cc4c5ccccc5c(-c5ccc(C(C)(C)C)cc5)n4[B-](F)(F)[N+]2=C3)cc1
emission maximum (in CC#N): 601 nm | emission maximum (in CCCCCC): 603 nm | emission maximum (in CN(C)C=O): 607 nm | emission maximum (in Cc1ccccc1): 611 nm | emission maximum (in ClCCl): 608 nm

c1ccc2c(c1)OB1Oc3ccccc3-c3c1c-2c1c2c3-c3ccccc3OB2Oc2ccccc2-1
emission maximum (in ClCCl): 430 nm

Nc1cc([NH3+])cc(-c2nc3ccccc3s2)c1
emission maximum (in O): 493.5 nm

Cc1c(COC(=O)c2ccccc2Br)n2c(OCC(=O)c3ccccc3Br)c(C)c(=O)n2c1=O
emission maximum (in CCO): 458 nm

C[Si]1(C)c2cc(C#Cc3ccccc3)ccc2C=Cc2ccc(C#Cc3ccccc3)cc21
emission maximum (in ClCCl): 407 nm

CCCCCCCCc1ccc(-n2c3c(c4c2c2c(n4-c4ccc(CCCCCCCC)cc4)-c4ccccc4NB2c2ccccc2)B(c2ccccc2)Nc2ccccc2-3)cc1
emission maximum (in Cc1ccccc1): 400 nm

c1ccc(-c2ccnc(-c3ccccc3)n2)cc1
emission maximum (in ClC(Cl)Cl): 311 nm

CC(C)(C)c1ccc(-c2nc3ccccc3nc2-c2cc(-c3nc4ccccc4nc3-c3ccc(C(C)(C)C)cc3)cc(-n3c4ccccc4c4ccccc43)c2)cc1
emission maximum (in Cc1ccccc1): 437 nm

c1ccc(-c2nc(-c3ccccc3)nc(-c3ccc(-c4ccc5c(c4)C4(c6ccccc6-c6ccccc64)c4cc(-c6ccc(-c7nc(-c8ccccc8)nc(-c8ccccc8)n7)cc6)ccc4N5c4ccccc4)cc3)n2)cc1
emission maximum [1]: 469 nm

Cc1nc2c(cc3c4c(cccc42)C(=O)OC3=O)o1
emission maximum (in CCO): 418 nm

C1=C(c2ccccc2)C=C(c2ccccc2)/C1=C/C1CCCCC1
emission maximum (in C1CCOC1): 420 nm

COC(=O)c1nc2c(OCc3ccccc3)nc(N)nc2n1Cc1ccccc1
emission maximum (in C1COCCO1): 376 nm | emission maximum (in CC#N): 382 nm | emission maximum (in CO): 405 nm | emission maximum (in ClCCl): 371 nm

O=C(c1ccncc1)c1ccc(-n2c3ccc(-n4c5ccccc5c5ccccc54)cc3c3cc(-n4c5ccccc5c5ccccc54)ccc32)cc1
emission maximum (in C1CCOC1): 532.75 nm | emission maximum (in Cc1ccccc1): 481.09 nm | emission maximum [1]: 487.5 nm

CCCC1(CCC)c2cc(-c3ccc(C(C)(C)C)cc3)ccc2-c2ccc(-c3ccc4c(c3)C(CCC)(CCC)c3cc(-c5ccc6c(c5)C(CCC)(CCC)c5cc(-c7ccc8c(c7)C(CCC)(CCC)c7cc(-c9ccc(C(C)(C)C)cc9)ccc7-8)ccc5-6)ccc3-4)cc21
emission maximum (in C1CCCCC1): 413 nm

Cc1ccc2nc3c4c(c5ccccc5c3nc2c1)OC(=O)CC4c1ccc(F)cc1 (stereo not drawn)
emission maximum (in ClC(Cl)Cl): 431 nm

CCC(CC)COC1=CC2=C3c4cc(OCC(CC)CC)c(-c5cccs5)n4[B-](F)(F)[n+]4c3n(c3cc(C(C)(C)C)ccc34)[B-](F)(F)[N+]2=C1c1cccs1
emission maximum (in C1CCOC1): 809 nm | emission maximum (in ClCCl): 811 nm

Cc1ccc(O)c(-c2[nH]c(=O)n3c2-c2ccccc2C3=O)c1
emission maximum (in CC#N): 480 nm | emission maximum (in CO): 500 nm | emission maximum (in ClCCl): 475 nm

O=C1Nc2ccccc2/C1=C/C(=O)c1ccc(O)cc1
emission maximum (in C1CCCCC1): 384 nm | emission maximum (in C1COCCO1): 399 nm | emission maximum (in CC#N): 401 nm | emission maximum (in CC(C)(C)O): 406 nm | emission maximum (in CC(C)O): 407 nm | emission maximum (in CCCCCC): 382 nm | emission maximum (in CCCCO): 407 nm | emission maximum (in CCOC(C)=O): 398 nm | emission maximum (in CN(C)C=O): 401 nm | emission maximum (in CO): 408 nm | emission maximum (in ClCCl): 400 nm | emission maximum (in O): 424 nm

Cc1ccc(/C2=c3\cc/c(o3)=C(\c3ccc(C)cc3)c3ccc([nH]3)-c3ccc4n3[P-](=O)(=O)[N+]3=C(C=CC3=C4c3ccco3)c3ccc2[nH]3)cc1
emission maximum (in ClC(Cl)Cl): 744 nm

O=Cc1ccc(C2=Cc3ccccc3P2(=O)c2ccccc2)cc1 (stereo not drawn)
emission maximum (in ClCCl): 427 nm

O=c1oc2ccccc2cc1-c1cccc(-c2cc3ccccc3oc2=O)c1
emission maximum (in ClC(Cl)Cl): 419 nm

CCCC1(CCC)c2ccccc2-c2ccc(-c3ccc(OC)cc3)cc21
emission maximum (in C1CCCCC1): 345 nm

CC(C)(C)n1c(=O)c2cc3ccc4cccc5ccc(c2c1=O)c3c45
emission maximum (in ClC(Cl)Cl): 451 nm

CCOC(=O)c1c2c3c(ccc(F)c3c3cc4ccccc4cc13)N(C)C2=O
emission maximum (in CC#N): 415 nm

c1cc2ccc3cc4cccc5ccc6cc(c1)c2c3c6c54
emission maximum (in C1CCCCC1): 436 nm | emission maximum (in CC#N): 436 nm | emission maximum (in CO): 436 nm | emission maximum (in Cc1ccccc1): 436 nm | emission maximum (in ClCCl): 437 nm

COC(=O)CNC(=O)c1nc2c(N(C)C)nc(N(C)C)nc2n1Cc1ccccc1
emission maximum (in C1COCCO1): 397 nm | emission maximum (in CC#N): 409 nm | emission maximum (in CO): 429 nm | emission maximum (in ClCCl): 407 nm

C(=C\c1ccc(Nc2ccccc2)cc1)/c1ccccc1
emission maximum (in CC#N): 436 nm | emission maximum (in CCCCCC): 378 nm

C=CCNc1ccc2ccc3oc4cc(=[N+]5CCCC5)ccc-4nc3c2c1
emission maximum (in CC#N): 635 nm | emission maximum (in CCO): 632 nm | emission maximum (in ClCCl): 622 nm | emission maximum (in O): 650 nm

c1ccc(-n2c(-c3ccc(-c4ccc(-c5ccc(-c6nc7c8ccccc8c8ccccc8c7n6-c6ccccc6)cc5)cc4)cc3)nc3ccccc32)cc1
emission maximum (in C1CCOC1): 435 nm | emission maximum (in C1COCCO1): 414 nm | emission maximum (in CC#N): 447 nm | emission maximum (in CCCCCC): 404 nm | emission maximum (in CCCCOCCCC): 411 nm | emission maximum (in CCN(CC)CC): 409 nm | emission maximum (in CCOC(C)=O): 425 nm | emission maximum (in CCOCC): 427 nm | emission maximum (in CN(C)C=O): 447 nm | emission maximum (in Cc1ccccc1): 413 nm | emission maximum (in ClC(Cl)Cl): 427 nm | emission maximum (in ClC=C(Cl)Cl): 417 nm | emission maximum (in ClCCl): 432 nm

CCCCCCc1ccc(-n2c3c4cccc(OC)c4nc(-c4ccc(C)cc4)c3c3c2c2c(-c4ccc(C)cc4)nc4c(OC)cccc4c2n3-c2ccc(CCCCCC)cc2)cc1
emission maximum (in ClC(Cl)Cl): 464 nm

CCC1=C(C)C2=Cc3c4ccccc4c4n3[B-](c3ccncc3)(Oc3ccccc3-4)[N+]2=C1C=Cc1ccc(OC)cc1 (stereo not drawn)
emission maximum (in CC#N): 712 nm | emission maximum (in CCCCCC): 711 nm | emission maximum (in Cc1ccccc1): 720 nm | emission maximum (in ClCCl): 717 nm

c1ccc2c(-c3cc(-c4nccs4)nc(-c4nccs4)c3)cccc2c1
emission maximum (in CC#N): 386 nm | emission maximum (in CCCCCC): 359 nm | emission maximum (in CO): 422 nm | emission maximum (in ClC(Cl)Cl): 377 nm

CCCN1/C(=C/C=C(/C=C/C2=[N+](CCC)c3ccccc3C2(C)C)c2ccncc2)C(C)(C)c2ccccc21
emission maximum (in CO): 648 nm | emission maximum (in CS(C)=O): 655 nm | emission maximum (in O): 658 nm

C(=C\c1cccc(/C=C/c2c3ccccc3cc3ccccc23)c1)/c1ccncc1
emission maximum (in C1CCOC1): 475 nm

N#Cc1ccc(C#Cc2ccccc2C#N)cc1
emission maximum (in ClC(Cl)Cl): 332 nm

O=c1cc[nH]c(=O)[nH]1
emission maximum (in CC#N): 311 nm

CC1=CC(C)=[N+]2C1=Cc1c3ccccc3c(C#Cc3cccs3)n1[B-]2(F)F
emission maximum (in CCCCCC): 628 nm | emission maximum (in CCCCCCCCO): 636 nm | emission maximum (in CCOC(C)=O): 632 nm | emission maximum (in CN(C)C=O): 639 nm | emission maximum (in ClCCl): 631 nm

C1=C2C3=C(C4=[N+]2[B-]2(Oc5ccccc54)Oc4ccccc4-c4c5c(c1n42)C1CCC5CC1)C1CCC3CC1 (stereo not drawn)
emission maximum (in ClCCl): 645 nm

COc1ccc(-c2cnc3cccc(-c4ccccc4)n23)cc1
emission maximum (in ClCCl): 484 nm

O=C1c2cccc3cc(C#CC#Cc4cc5c6c(cccc6c4)C(=O)N(c4ccccc4)C5=O)cc(c23)C(=O)N1c1ccccc1
emission maximum (in ClCCl): 421 nm

c1ccc(-c2ccc(-c3ccc(N(c4ccccc4)c4ccccc4)cc3)c3nsnc23)cc1
emission maximum (in C1CCOC1): 578 nm | emission maximum (in CC(C)=O): 619 nm | emission maximum (in CCCCCC): 526 nm | emission maximum (in CCOCC): 558 nm

Fc1ccc(-c2cc3c4c(c2)CCc2cc(-c5ccc(F)cc5)cc(c2-4)CC3)cc1
emission maximum (in C1CCCCC1): 374.66 nm | emission maximum (in C1CCOC1): 378.18 nm | emission maximum (in CC#N): 375.98 nm | emission maximum (in CCCCCC): 374.51 nm | emission maximum (in CCO): 375.24 nm | emission maximum (in CN(C)C=O): 380.68 nm | emission maximum (in CO): 375.1 nm | emission maximum (in ClC(Cl)Cl): 379.68 nm | emission maximum (in ClCCl): 378.91 nm

COc1cccc2cc(-c3cc4cccc(OC)c4oc3=O)oc12
emission maximum (in CC#N): 488 nm | emission maximum (in CCOC(C)=O): 460 nm | emission maximum (in CS(C)=O): 488 nm | emission maximum (in Cc1ccccc1): 448 nm | emission maximum (in O): 504 nm

CCCN1/C(=C/C=C(/C=C/C2=[N+](CCC)c3ccccc3C2(C)C)c2ccc([N+](=O)[O-])cc2)C(C)(C)c2ccccc21
emission maximum (in CO): 656 nm | emission maximum (in CS(C)=O): 664 nm | emission maximum (in O): 663 nm

N[C@@H](Cn1nnc2cc(-c3ccc(-c4ccsc4)cc3)ccc21)C(=O)O
emission maximum (in CO): 384 nm

C[n+]1c2c(c(-c3ccccc3)c3c1CCCC3)CCCC2
emission maximum (in CCO): 420 nm

CC1(C)C(/C=C/C2=C(Oc3ccc(CCN=C=S)cc3F)C(=C/C=C3/N(CCCS(=O)(=O)[O-])c4ccccc4C3(C)C)/CCC2)=[N+](CCCS(=O)(=O)[O-])c2ccccc21
emission maximum (in CO): 797 nm

COc1ccc(C#Cc2c3ccccc3c3n2[B-](F)(F)[N+]2=C(C)C=C(C)C2=C3)cc1
emission maximum (in CCCCCC): 620 nm | emission maximum (in CCCCCCCCO): 629 nm | emission maximum (in CCOC(C)=O): 623 nm | emission maximum (in CN(C)C=O): 630 nm | emission maximum (in ClCCl): 633 nm
